What was measured:
[1] = tested on: Pristionchus pacificus young adult animals; experiment: Pristionchus pacificus young adult abnormal locomotory behaviour on solid agar; assay type: in vivo; settings: 1 h, read-out: P. pacificus, young adult 1 h any phene at 1 h (EC50 (μM))
Strongyloides ratti L3 = assay type: in vivo; settings: 72 h incubation, 1 replicate
[2] = tested on: Heligmosomoides polygyrus larval stage 3 (L3) worms; assay type: in vivo; settings: 72 h incubation, one replicate
[3] = tested on: Danio rerio (zebrafish) embryos; experiment: Danio rerio (zebrafish) embryo abnormal developmental phenotype; assay type: in vivo; settings: read-out: D. rerio (zebrafish) any phenotype EC50 (μM)
C. elegans L3 larvae = C. elegans L3 larvae abnormal locomotory behaviour on solid agar; settings: solid agar MYOB + E. coli OP50, mean of 4 replicates; for % C. elegans L3 larvae any phene 1 h (conc.): 1 h exposure; for % C. elegans L3 larvae any phene 6 h (conc.): 6 h exposure; for % C. elegans L3 larvae any phene 24 h (conc.): 24 h exposure
Method: 20 animals were scored after either 1, 6 or 24 hours of exposure to drug (as indicated) per replicate. […] Data are reported as the mean % of animals with abnormal phenotype over 4 independent replicates.

[4] = tested on: D. immitis larval stage 3 (L3) worms; experiment: D. immitis L3 development assay; assay type: in vivo; settings: 72 h, read-out: D. immitis L3 development EC50 (μM)

| SMILES | EC50 [1] | S. ratti L3 % lethality 25 μM (Strongyloides ratti L3) | H. Polygyrus % lethality L3 25 μM [2] | EC50 [3] | % C. elegans L3 larvae any phene 1 h (conc.) (C. elegans L3 larvae; 3.75 uM) | % C. elegans L3 larvae any phene 6 h (conc.) (C. elegans L3 larvae; 3.75 uM) | % C. elegans L3 larvae any phene 24 h (conc.) (C. elegans L3 larvae; 3.75 uM) | % C. elegans L3 larvae any phene 1 h (conc.) (C. elegans L3 larvae; 15 uM) | % C. elegans L3 larvae any phene 6 h (conc.) (C. elegans L3 larvae; 15 uM) | % C. elegans L3 larvae any phene 24 h (conc.) (C. elegans L3 larvae; 15 uM) | % C. elegans L3 larvae any phene 1 h (conc.) (C. elegans L3 larvae; 60 uM) | % C. elegans L3 larvae any phene 6 h (conc.) (C. elegans L3 larvae; 60 uM) | % C. elegans L3 larvae any phene 24 h (conc.) (C. elegans L3 larvae; 60 uM) | EC50 [4] |
| --- | --- | --- | --- | --- | --- | --- | --- | --- | --- | --- | --- | --- | --- | --- |
| CC1CCC(N2CCN(c3cccc(Cl)c3)CC2)C1 (stereo not drawn) [VI-d] | 2.5 µM | 17.9% | 56.5% | 15 µM | 80.0% | 11.7% | 0.0% | 100.0% | 59.2% | 0.0% | 100.0% | 100.0% | 66.7% |  |
| FC(F)(F)c1cccc(N2CCN(CC3CCCCC3)CC2)c1 [VI-g] |  | 0% | 11.6% | 29.3 µM | 9.2% | 0.0% | 0.0% | 65.0% | 21.7% | 0.0% | 94.2% | 54.2% | 1.7% |  |
| Cc1cc([N+](=O)[O-])ccc1N1CCN(CC2CCCCC2)CC1 [V-a] | > 60 µM |  |  | 5.1 µM | 15.8% | 0.0% | 0.0% | 33.3% | 15.8% | 0.0% | 63.3% | 27.5% | 0.0% | 15 µM |
| FC(F)(F)c1cccc(N2CCN(C3CCCCCC3)CC2)c1 [VI-h] |  | 0% | 0% | 7.8 µM | 64.2% | 0.0% | 0.0% | 100.0% | 37.5% | 25.0% | 100.0% | 100.0% | 62.5% |  |
| Fc1ccccc1N1CCN(C2CCCCCC2)CC1 [VI-j] | 41.5 µM | 66.7% | 35.4% | 21.1 µM | 25.8% | 0.8% | 0.0% | 69.2% | 12.5% | 0.0% | 100.0% | 41.7% | 9.2% |  |
| FC(F)(F)c1cccc(N2CCN(CC3CC4C=CC3C4)CC2)c1 (stereo not drawn) [VI-f] | 2.8 µM | 0% | 0% | 7.8 µM | 34.2% | 0.0% | 0.0% | 81.7% | 83.2% | 52.5% | 100.0% | 100.0% | 92.5% |  |

From patent US20230339874A1, “PIPERAZINYL COMPOUNDS AND METHODS FOR TREATING NEMATODE INFECTIONS” (The Governing Council of the University of Toronto, priority 2020, published 2023)
